Test results: ChEMBL document CHEMBL2176970, “Discovery and optimization of a series of 3-(3-phenyl-3H-imidazo[4,5-b]pyridin-2-yl)pyridin-2-amines: orally bioavailable, selective, and potent ATP-independent Akt inhibitors” (J Med Chem, 2012)
Active and inactive are the calls of the source. No cut-off for these calls is given here.

How the values were obtained:
[1] = biological target: Cyclin-dependent kinase 2/cyclin E (Homo sapiens) (UniProt P24864+P24941+O96020); assay: Inhibition of CDK2/cyclinE using fluorescent labelled substrate at 5 uM by caliper method; format: protein-complex assay
[2] = biological target: Angiopoietin-1 receptor (Homo sapiens) (UniProt Q02763); assay: Inhibition of TIE2 using fluorescent labelled substrate at 5 uM by caliper method
[3] = biological target: Ribosomal protein S6 kinase alpha-3 (Homo sapiens) (UniProt P51812); assay: Inhibition of RSK2 using fluorescent labelled substrate at 5 uM by caliper method
[4] = biological target: Protein kinase C beta type (Homo sapiens) (UniProt P05771); assay: Inhibition of PKCbeta1 using fluorescent labelled substrate at 5 uM by caliper method
[5] = biological target: Mitogen-activated protein kinase 3 (Homo sapiens) (UniProt P27361); assay: Inhibition of MAPK3 using fluorescent labelled substrate at 5 uM by caliper method
Mitogen-activated protein kinase 3 (Homo sapiens), sequence (P27361 whole entry): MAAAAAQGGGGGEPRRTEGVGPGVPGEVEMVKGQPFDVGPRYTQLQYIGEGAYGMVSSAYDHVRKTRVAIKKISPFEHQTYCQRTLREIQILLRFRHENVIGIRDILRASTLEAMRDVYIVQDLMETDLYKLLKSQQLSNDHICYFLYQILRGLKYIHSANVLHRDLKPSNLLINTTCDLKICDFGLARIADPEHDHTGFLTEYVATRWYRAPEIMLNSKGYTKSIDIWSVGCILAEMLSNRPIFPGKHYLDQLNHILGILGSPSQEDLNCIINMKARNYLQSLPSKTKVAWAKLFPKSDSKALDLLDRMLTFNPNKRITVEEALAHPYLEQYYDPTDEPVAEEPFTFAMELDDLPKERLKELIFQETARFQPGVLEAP

Cytochrome P450 2C19 = Cytochrome P450 2C19 (Homo sapiens, UniProt P33261); assay: Inhibition of CYP2C19 in human liver microsomes using S-mephenytoin as substrate after 10 mins; format: ADME, Microsome
[6] = biological target: Ribosomal protein S6 kinase alpha-2 (Homo sapiens) (UniProt Q15349); assay: Inhibition of RSK3 using fluorescent labelled substrate at 5 uM by caliper method
[7] = biological target: Protein kinase C alpha type (Homo sapiens) (UniProt P17252); assay: Inhibition of PKCalpha using fluorescent labelled substrate at 5 uM by caliper method
[8] = biological target: Protein kinase C eta type (Homo sapiens) (UniProt P24723); assay: Inhibition of PKCeta using fluorescent labelled substrate at 5 uM by caliper method
[9] = biological target: Calcium/calmodulin-dependent protein kinase type II subunit delta (Homo sapiens) (UniProt Q13557); assay: Inhibition of CAMK2delta using fluorescent labelled substrate at 5 uM by caliper method
[10] = biological target: Serine/threonine-protein kinase PAK 3 (Homo sapiens) (UniProt O75914); assay: Inhibition of PAK3 using fluorescent labelled substrate at 5 uM by caliper method
[11] = biological target: Serine/threonine-protein kinase pim-1 (Homo sapiens) (UniProt P11309); assay: Inhibition of PIM1 using fluorescent labelled substrate at 5 uM by caliper method
[12] = biological target: T1, RAC-alpha serine/threonine-protein kinase (Homo sapiens, UniProt P31749); assay: Inhibition of Akt1 in human A2780 cells assessed as phosphorylation PRAS40 at T246 after 2 hrs by Western Blot analysis; format: cell-based
T1 sequence (P31749 whole entry): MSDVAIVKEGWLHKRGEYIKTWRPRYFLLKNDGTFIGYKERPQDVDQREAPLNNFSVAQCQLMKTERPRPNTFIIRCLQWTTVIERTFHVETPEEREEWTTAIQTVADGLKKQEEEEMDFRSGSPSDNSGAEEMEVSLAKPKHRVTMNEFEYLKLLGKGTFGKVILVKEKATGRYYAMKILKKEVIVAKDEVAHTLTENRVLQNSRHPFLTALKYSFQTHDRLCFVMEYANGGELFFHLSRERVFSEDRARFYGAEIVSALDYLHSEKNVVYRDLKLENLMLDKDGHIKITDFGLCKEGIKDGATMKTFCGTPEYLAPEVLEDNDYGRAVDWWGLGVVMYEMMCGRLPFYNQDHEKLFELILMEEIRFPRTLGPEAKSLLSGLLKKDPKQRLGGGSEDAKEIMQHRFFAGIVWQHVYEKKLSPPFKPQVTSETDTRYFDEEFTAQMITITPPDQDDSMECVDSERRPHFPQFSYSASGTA

[13] = biological target: Fibroblast growth factor receptor 1 (Homo sapiens) (UniProt P11362); assay: Inhibition of FGFR1 using fluorescent labelled substrate at 5 uM by caliper method
[14] = biological target: Ribosomal protein S6 kinase beta-1 (Homo sapiens) (UniProt P23443); assay: Inhibition of P70S6KB1 using fluorescent labelled substrate at 5 uM by caliper method
Ribosomal protein S6 kinase beta-1 (Homo sapiens), sequence (P23443 whole entry, looked up): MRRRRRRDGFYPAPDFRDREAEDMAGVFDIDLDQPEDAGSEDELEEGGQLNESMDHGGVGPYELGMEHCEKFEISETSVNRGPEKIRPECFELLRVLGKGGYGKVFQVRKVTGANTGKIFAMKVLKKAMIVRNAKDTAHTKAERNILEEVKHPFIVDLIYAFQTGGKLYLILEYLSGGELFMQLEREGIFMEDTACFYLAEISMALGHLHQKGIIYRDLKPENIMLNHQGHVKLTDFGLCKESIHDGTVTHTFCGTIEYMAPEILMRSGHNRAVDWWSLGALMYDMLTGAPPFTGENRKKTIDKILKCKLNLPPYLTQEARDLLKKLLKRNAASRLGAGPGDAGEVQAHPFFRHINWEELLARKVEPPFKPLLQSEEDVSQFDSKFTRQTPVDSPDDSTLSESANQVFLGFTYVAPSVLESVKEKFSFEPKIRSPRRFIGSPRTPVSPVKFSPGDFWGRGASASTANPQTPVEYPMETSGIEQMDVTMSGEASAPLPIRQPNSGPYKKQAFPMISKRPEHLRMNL

[15] = Half life in male CD1 mouse liver microsomes at 1 uM by LC/MS/MS; format: ADME, Microsome
[16] = biological target: Proto-oncogene tyrosine-protein kinase receptor Ret (Homo sapiens) (UniProt P07949); assay: Inhibition of RET using fluorescent labelled substrate at 5 uM by caliper method
Proto-oncogene tyrosine-protein kinase receptor Ret (Homo sapiens), sequence (P07949 whole entry): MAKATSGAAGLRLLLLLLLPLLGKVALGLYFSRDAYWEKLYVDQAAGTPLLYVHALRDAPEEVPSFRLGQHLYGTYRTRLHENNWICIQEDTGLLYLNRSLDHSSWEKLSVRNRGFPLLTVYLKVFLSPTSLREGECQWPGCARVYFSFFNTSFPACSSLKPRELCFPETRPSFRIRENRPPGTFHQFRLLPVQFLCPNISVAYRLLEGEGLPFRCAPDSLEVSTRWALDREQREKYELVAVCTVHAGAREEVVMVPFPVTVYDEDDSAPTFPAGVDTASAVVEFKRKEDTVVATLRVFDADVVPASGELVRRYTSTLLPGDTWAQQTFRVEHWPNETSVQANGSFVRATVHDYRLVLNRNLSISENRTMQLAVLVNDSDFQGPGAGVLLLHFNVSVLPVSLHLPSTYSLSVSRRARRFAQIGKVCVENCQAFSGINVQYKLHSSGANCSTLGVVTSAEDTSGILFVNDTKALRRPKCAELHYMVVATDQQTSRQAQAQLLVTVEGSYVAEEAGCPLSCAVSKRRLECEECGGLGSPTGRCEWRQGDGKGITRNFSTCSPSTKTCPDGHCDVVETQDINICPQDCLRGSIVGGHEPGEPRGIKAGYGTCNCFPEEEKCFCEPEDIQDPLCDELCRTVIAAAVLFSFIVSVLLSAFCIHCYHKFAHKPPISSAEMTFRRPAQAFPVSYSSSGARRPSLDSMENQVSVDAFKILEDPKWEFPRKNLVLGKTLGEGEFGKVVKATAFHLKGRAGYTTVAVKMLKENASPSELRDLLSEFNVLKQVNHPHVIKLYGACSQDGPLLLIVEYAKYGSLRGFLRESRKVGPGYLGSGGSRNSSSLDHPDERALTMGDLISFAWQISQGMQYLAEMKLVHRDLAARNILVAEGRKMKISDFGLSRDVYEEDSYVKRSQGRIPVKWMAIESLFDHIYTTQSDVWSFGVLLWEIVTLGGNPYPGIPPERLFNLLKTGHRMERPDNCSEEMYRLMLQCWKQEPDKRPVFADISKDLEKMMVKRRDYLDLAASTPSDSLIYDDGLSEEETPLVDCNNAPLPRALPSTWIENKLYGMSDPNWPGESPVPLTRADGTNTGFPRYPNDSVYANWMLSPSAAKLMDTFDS

[17] = biological target: Serine/threonine-protein kinase PAK 2 (Homo sapiens) (UniProt Q13177); assay: Inhibition of PAK2 using fluorescent labelled substrate at 5 uM by caliper method
[18] = biological target: T1, RAC-alpha serine/threonine-protein kinase; assay: Inhibition of Akt1 (1 to 480) expressed in Sf9 cells using biotin-GRPRTSSFAEG as substrate after 20 mins by Alpha-screen assay
[19] = biological target: 3-phosphoinositide-dependent protein kinase 1 (Homo sapiens) (UniProt O15530); assay: Inhibition of PDK1 using fluorescent labelled substrate at 5 uM by caliper method
3-phosphoinositide-dependent protein kinase 1 (Homo sapiens), sequence (O15530 whole entry): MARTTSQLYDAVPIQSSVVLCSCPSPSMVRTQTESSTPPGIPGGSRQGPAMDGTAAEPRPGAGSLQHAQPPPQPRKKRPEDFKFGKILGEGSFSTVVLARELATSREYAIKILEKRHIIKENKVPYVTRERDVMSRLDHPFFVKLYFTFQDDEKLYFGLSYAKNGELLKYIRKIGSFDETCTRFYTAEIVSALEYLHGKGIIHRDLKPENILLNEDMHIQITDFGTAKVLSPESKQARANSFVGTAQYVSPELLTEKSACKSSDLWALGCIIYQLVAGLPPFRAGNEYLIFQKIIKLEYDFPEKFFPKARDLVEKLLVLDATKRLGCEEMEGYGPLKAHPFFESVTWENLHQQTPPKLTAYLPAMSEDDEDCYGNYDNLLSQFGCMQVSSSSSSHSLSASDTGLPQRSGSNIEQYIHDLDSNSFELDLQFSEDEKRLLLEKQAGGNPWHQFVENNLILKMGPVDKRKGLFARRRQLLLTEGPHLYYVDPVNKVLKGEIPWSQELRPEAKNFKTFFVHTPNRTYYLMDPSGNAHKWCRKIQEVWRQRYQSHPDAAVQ

[20] = biological target: Ribosomal protein S6 kinase alpha-5 (Homo sapiens) (UniProt O75582); assay: Inhibition of MSK1 using fluorescent labelled substrate at 5 uM by caliper method
Ribosomal protein S6 kinase alpha-5 (Homo sapiens), sequence (O75582 whole entry, looked up): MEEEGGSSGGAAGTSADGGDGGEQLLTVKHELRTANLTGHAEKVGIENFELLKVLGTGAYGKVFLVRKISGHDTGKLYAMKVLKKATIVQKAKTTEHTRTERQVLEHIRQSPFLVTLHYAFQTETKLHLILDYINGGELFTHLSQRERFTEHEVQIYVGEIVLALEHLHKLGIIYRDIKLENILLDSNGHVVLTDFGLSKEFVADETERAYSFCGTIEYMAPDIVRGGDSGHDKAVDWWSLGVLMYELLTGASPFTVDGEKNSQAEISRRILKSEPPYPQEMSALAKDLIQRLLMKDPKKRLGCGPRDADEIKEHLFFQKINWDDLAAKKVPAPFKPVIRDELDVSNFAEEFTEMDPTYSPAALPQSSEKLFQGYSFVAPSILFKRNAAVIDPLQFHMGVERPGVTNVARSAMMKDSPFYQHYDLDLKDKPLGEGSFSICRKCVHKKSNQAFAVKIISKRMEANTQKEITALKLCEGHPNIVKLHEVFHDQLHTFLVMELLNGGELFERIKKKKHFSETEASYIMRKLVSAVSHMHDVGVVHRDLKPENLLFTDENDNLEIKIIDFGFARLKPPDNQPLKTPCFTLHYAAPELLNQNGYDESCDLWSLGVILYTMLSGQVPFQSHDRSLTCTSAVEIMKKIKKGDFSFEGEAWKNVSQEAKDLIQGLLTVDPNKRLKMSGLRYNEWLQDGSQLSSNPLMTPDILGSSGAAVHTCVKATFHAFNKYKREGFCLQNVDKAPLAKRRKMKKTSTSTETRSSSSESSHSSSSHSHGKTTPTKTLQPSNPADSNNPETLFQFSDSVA

[21] = Half life in human liver microsomes at 1 uM by LC/MS/MS; format: ADME, Microsome
[22] = biological target: Serine/threonine-protein kinase Sgk1 (Homo sapiens) (UniProt O00141); assay: Inhibition of SGK1 using fluorescent labelled substrate at 5 uM by caliper method
[23] = biological target: T1, RAC-alpha serine/threonine-protein kinase; assay: Inhibition of Akt1 in human AN3CA cells assessed as phosphorylation PRAS40 at T246 after 2 hrs by Western Blot analysis; format: cell-based, AN3-CA
Cytochrome P450 2D6 = Cytochrome P450 2D6 (Homo sapiens, UniProt P10635); assay: Inhibition of CYP2D6 in human liver microsomes using bufuralol as substrate after 10 mins; format: ADME, Microsome
Cytochrome P450 2C9 = Cytochrome P450 2C9 (Homo sapiens, UniProt P11712); assay: Inhibition of CYP2C9 in human liver microsomes using tolbutamide as substrate after 10 mins; format: ADME, Microsome
Cytochrome P450 2C9, sequence (P11712 whole entry): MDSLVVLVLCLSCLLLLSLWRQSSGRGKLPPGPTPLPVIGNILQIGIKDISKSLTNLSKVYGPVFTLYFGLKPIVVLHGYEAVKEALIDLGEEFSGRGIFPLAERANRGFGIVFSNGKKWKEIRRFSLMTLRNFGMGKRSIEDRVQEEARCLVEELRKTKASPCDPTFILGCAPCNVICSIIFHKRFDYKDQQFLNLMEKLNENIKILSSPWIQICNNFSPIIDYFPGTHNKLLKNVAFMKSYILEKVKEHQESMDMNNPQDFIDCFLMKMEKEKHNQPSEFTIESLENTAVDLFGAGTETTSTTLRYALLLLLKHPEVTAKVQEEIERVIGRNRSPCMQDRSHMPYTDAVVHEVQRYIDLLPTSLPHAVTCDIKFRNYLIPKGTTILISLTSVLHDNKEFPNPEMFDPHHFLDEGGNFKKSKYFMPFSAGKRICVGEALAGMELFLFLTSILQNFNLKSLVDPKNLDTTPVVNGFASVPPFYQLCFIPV

[24] = biological target: Ribosomal protein S6 kinase alpha-4 (Homo sapiens) (UniProt O75676); assay: Inhibition of MSK2 using fluorescent labelled substrate at 5 uM by caliper method
[25] = biological target: RAC-gamma serine/threonine-protein kinase (Homo sapiens, UniProt Q9Y243); assay: Binding affinity to Akt3 (1 to 479) expressed in Sf9 cells assessed as change in melting temperature at 15 uM
RAC-gamma serine/threonine-protein kinase, sequence (Q9Y243 whole entry): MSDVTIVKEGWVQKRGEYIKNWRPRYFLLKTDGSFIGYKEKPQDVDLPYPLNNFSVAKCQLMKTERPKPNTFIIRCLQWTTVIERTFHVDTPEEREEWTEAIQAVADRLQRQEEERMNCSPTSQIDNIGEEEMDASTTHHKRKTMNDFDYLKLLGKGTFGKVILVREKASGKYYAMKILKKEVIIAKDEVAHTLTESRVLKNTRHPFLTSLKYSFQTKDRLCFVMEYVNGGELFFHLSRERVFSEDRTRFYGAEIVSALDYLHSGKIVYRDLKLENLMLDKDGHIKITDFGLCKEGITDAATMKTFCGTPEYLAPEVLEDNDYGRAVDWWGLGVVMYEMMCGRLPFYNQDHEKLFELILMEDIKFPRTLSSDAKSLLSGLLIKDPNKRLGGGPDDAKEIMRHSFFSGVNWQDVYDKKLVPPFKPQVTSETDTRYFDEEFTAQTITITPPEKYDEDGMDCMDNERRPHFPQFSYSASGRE

[26] = biological target: T1, RAC-alpha serine/threonine-protein kinase; assay: Inhibition of Akt1 (1 to 480) expressed in Sf9 cells by indirect affinity mass spectrometry assay

SMILES | inhibition [1] [%] | inhibition [2] [%] | inhibition [3] [%] | inhibition [4] [%] | inhibition [5] [%] | IC50 (Cytochrome P450 2C19) [µM] | inhibition [6] [%] | inhibition [7] [%] | inhibition [8] [%] | inhibition [9] [%] | inhibition [10] [%] | inhibition [11] [%] | IC50 [12] [µM] | inhibition [13] [%] | inhibition [14] [%] | half-life at 1 µM [15] [min] | inhibition [16] [%] | inhibition [17] [%] | inhibition [19] [%] | inhibition [20] [%] | further results
Nc1ncccc1-c1nc2cccnc2n1-c1ccc(CNC(=O)c2ccccc2)cc1 | > 25 | > 25 | > 25 | > 25 | > 25 | > 10 | > 25 | > 25 | > 25 | > 25 | > 25 | > 25 | > 10 | > 25 | > 25 | > 60 | > 25 | > 25 | > 25 | > 25 | IC50 [18]: 23 nM; half-life at 1 µM [21]: 60 min; inhibition [22]: > 25%; IC50 [23]: > 10 µM; IC50 (Cytochrome P450 2D6): > 10 µM; IC50 (Cytochrome P450 2C9): > 10 µM; inhibition [24]: > 25%; deltaTm [25]: inactive
Nc1ncccc1-c1nc2cccnc2n1-c1ccc(CC(=O)Nc2ccccc2)cc1 | > 25 | > 25 | > 25 | > 25 | > 25 | > 10 | > 25 | > 25 | > 25 | > 25 | > 25 | > 25 | > 10 | > 25 | > 25 | > 60 | > 25 | > 25 | > 25 | > 25 | half-life at 1 µM [21]: 47.6 min; inhibition [22]: > 25%; IC50 [26]: 14 µM; IC50 [23]: > 10 µM; IC50 (Cytochrome P450 2D6): > 10 µM; IC50 (Cytochrome P450 2C9): > 10 µM; inhibition [24]: > 25%; deltaTm [25]: inactive
